The test system of this experiment is Listeria innocua 33090. Put plainly: colony overlay assay of peptide-secreting E. coli clones (library screening and re-test). It counts as cell-based. On the set-up: key: higher activity group (H); equal activity group (E); lower activity group (L). The settings on record: library screening; selected colonies pooled by zone size; peptides identified by 454 sequencing, full-length sequences with minimum 20 reads. In outline:
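Pln-423 mutant library expressed periplasmically in leaky E. coli JE5505 (pFLAG-CTS); colonies grown 24 h at 37°C, then overlaid with TSB soft agar containing 1 mM IPTG and L. innocua ATCC 33090 (OD600 = 0.03) and incubated overnight at 30°C. Activity scored by inhibition-zone size versus wild-type Pln-423; hits re-tested after 4 h regrowth.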
“KYYGNGVTCGKHSCSVNWGQAFSCNVSHLANFGHGKC* [Pep-1_45]”: the “activity group by size of inhibition zone compared to wild-type Pln-423” value is reported as “L”.

As for “KYYGNGVTCGKHSCSVNWGQAFWCSVSHLANFGHGKC* [Pep-1_36]”, the “activity group by size of inhibition zone compared to wild-type Pln-423” value is listed as “L”. To “KYYGNGVTCGKHSCSVNWGQAFSCSVSHLANFGWGKC* [Pep-1_102]” belongs “L”; to “KYYGNGVTCGKHSCSVNWGQAFSCSVTHLANFGHAKC* [Pep-2_6179]”, “E”. The value for “KYYGNGVTCGKHSCSVNWGQAFSCSVSVLANFGHGNC* [Pep-2_6939]” was “L”; that for “KYYGNGVTCGKHSCSVNWGQAFSCSVSHLANFGHGCC* [GROUP L-UM-31]” was “L”; that for “KYYGNGVTCGKHSCSVNWGQAGSCVVSHLANFGHGKC* [Pep-2_4919]” was “L”. To “KYYGNGVTCGKHSCSVNWGQAFSCRVSHLANFGHGKC* [GROUP L-UM-13]” belongs “L”. On to “KYYGNGVTCGKHSCSVNWGQAFECSVSWLANFGHGKC* [Pep-2_3438]”, for which the “activity group by size of inhibition zone compared to wild-type Pln-423” value is on record as “L”. Turning to “KYYGNGVTCGKHSCSVNWGQAFSCGVSHLANMGHGKC* [Pep-2_9473]”, the “activity group by size of inhibition zone compared to wild-type Pln-423” value is on record as “H”.

Regarding “KYYGNGVTCGKHSCSVNWGQAFECSVDHLANFGHGKC* [Pep-2_3428]”, the “activity group by size of inhibition zone compared to wild-type Pln-423” value was “E”. For the substance “KYYGNGVTCGKHSCSVNWGQAFSCGVSHLANFGHGKC* [GROUP E-UM-7]”, the “activity group by size of inhibition zone compared to wild-type Pln-423” value is listed as “E”. The value for “KYYGNGVTCGKHSCSVNWGQAFSCNVSHLANFGHGVC* [Pep-2_4888]” was “L and H”. To “KYYGNGVTCGKHSCSVNWGQAFSCSVRHLANFGHGEC* [Pep-2_11857]” belongs “L”; to “KYYGNGVTCGKHSCSVNWAQALSCSVSHLANFGHGKC* [Pep-2_1132]”, “L”. Regarding “KYYGNGVTCGKHSCSVNWGQAFSCSVTHLANFGHGKC* [Pep-1_57]”, the “activity group by size of inhibition zone compared to wild-type Pln-423” value is “L and E”. The value for “KYYGNGVTCGKHSCSVNWGQAFSCAVSHLANFGVGKC* [Pep-2_5092]” was “L”; that for “KYYGNGVTCGKHSCSVNWGQAFSCSVAHLANFGHGKC* [Pep-1_59]” was “L”. The value for “KYYGNGVTCGKHSCSVNWGQWFSCSVSHLANFGMGKC* [Pep-2_10746]” was “L”. Consider “KYYGNGVTCGKHSCSVNWGQAFSCSVFHLANFGHGLC* [Pep-2_12076]”, for which the “activity group by size of inhibition zone compared to wild-type Pln-423” value was “L”.

Consider “KYYGNGVTCGKHSCSVNWGQAFSCSVTILANFGHGKC* [Pep-2_6136]”, for which the “activity group by size of inhibition zone compared to wild-type Pln-423” value is “L”. The value for “KYYGNGVTCGKHSCSVNWGWAFSCSVSHLANFGHGKC* [Pep-1_18]” was “L”; that for “KYYGNGVTCGKHSCSVNWGQAFSCSVEHLANFGYGKC* [Pep-2_6063]” was “E”. To “KYYGNGVTCGKHSCSVNWGQAMSCSVSRLANFGHGKC* [Pep-2_6538]” belongs “E”. As to “KYYGNGVTCGKHSCSVNWGQAFSCSVHHLANFGHGKC* [Pep-1_55]”, the “activity group by size of inhibition zone compared to wild-type Pln-423” value is “L”. The value for “KYYGNGVTCGKHSCSVNWGQAFSCSVSHLANFGMGEC* [Pep-2_10826]” was “H”.

Regarding “KYYGNGVTCGKHSCSVNWGQAFSCSVSRLANFGEGKC* [Pep-2_6602]”, the “activity group by size of inhibition zone compared to wild-type Pln-423” value is on record as “H”. The value for “KYYGNGVTCGKHSCSVNWGQAFSCSVSWLANFGHGKC* [GROUP L-UM-12]” was “L”; that for “KYYGNGVTCGKHSCSVNWGQAFSCSVSHLAEFGHGKC* [Pep-1_80]” was “L”; that for “KYYGNGVTCGKHSCSVNWGQAFVCSVSHLANFGHGKC* [Pep-1_34]” was “L and E”. Take “KYYGNGVTCGKHSCSVNWGQAFSCSVEHLANFGHNKC* [Pep-2_11318]”: the “activity group by size of inhibition zone compared to wild-type Pln-423” value is on record as “H”. The value for “KYYGNGVTCGKHSCSVNWGEAFVCSVSHLANFGHGKC* [Pep-2_3608]” was “E”. To “KYYGNGVTCGKHSCSVNWGQAYSCSVSHLANFGHGKC* [GROUP L-UM-21]” belongs “L”; to “KYYGNGVTCGKHSCSVNWGQAFSCSVSRLANFGHGKC* [Pep-1_61]”, “E and H”; to “KYYGNGVTCGKHSCSVNWGQAFSCAVSHLANFGHGKC* [Pep-1_47]”, “L”. As for “KYYGNGVTCGKHSCSVNWGAAFSCAVSHLANFGHGKC* [Pep-2_5015]”, the “activity group by size of inhibition zone compared to wild-type Pln-423” value is listed as “L”.

As to “KYYGNGVTCGKHSCSVNWGQAFNCSVENLANFGHGKC* [GROUP H-UM-3]”, the “activity group by size of inhibition zone compared to wild-type Pln-423” value was “H”. To “KYYGNGVTCGKHSCSVNWGQAFSCSVTHLASFGHGKC* [Pep-2_6153]” belongs “L”. The value for “KYYGNGVTCGKHSCSVNWGQAFSCSVSHLANFGHGSC* [Pep-1_111]” was “L and E”. The value for “KYYGNGVTCGKHSCSVNYGQAFSCSVWHLANFGHGKC* [Pep-2_282]” was “E”; that for “KYYGNGVTCGKHSCSVNWGQAFSCAFSHLANFGHGKC* [Pep-2_5044]” was “L”; that for “KYYGNGVTCGKHSCSVNWGQAFECSVSHLANFGHGKC* [Pep-1_32]” was “L and H”. Take “KYYGNGVTCGKHSCSVNWGEAFSCSVSHLANYGHGKC* [GROUP E-UM-2]”: the “activity group by size of inhibition zone compared to wild-type Pln-423” value is on record as “E”.

As for “KYYGNGVTCGKHSCSVNWGQAFSCAVSRLANFGHGKC* [Pep-2_5053]”, the “activity group by size of inhibition zone compared to wild-type Pln-423” value was “L”. For the substance “KYYGNGVTCGKHSCSVNAGQAFSCAVSHLANFGHGKC* [Pep-2_497]”, the “activity group by size of inhibition zone compared to wild-type Pln-423” value is “E”.

As for “KYYGNGVTCGKHSCSVNWGQAFSCHVSHLANFGHGKC* [Pep-1_43]”, the “activity group by size of inhibition zone compared to wild-type Pln-423” value is “L”. Regarding “KYYGNGVTCGKHSCSVNWGQAFVCSNSHLANFGHGKC* [Pep-2_3639]”, the “activity group by size of inhibition zone compared to wild-type Pln-423” value was “L”. To “KYYGNGVTCGKHSCSVNWAQAFSCSVSHLANFGHGLC* [Pep-2_12029]” belongs “L”; to “KYYGNGVTCGKHSCSVNWGQAFSCYMSHLANFGHGAC* [GROUP L-UM-9]”, “L”; to “KYYGNGVTCGKHSCSVNWGQAFSCSMSRLANFGHGKC* [Pep-2_6562]”, “L”. The value for “KYYGNGVTCGKHSCSVNWGQAFSCSVSVLANFGHGKC* [Pep-1_64]” was “E”. The value for “KYYGNGVTCGKHSCSVNYGQLFSCSVSHLANFGHGKC* [GROUP L-UM-22]” was “L”; that for “KYYGNGVTCGKHSCSVNWGQAFSCSVCHMANFGHGKC* [Pep-2_7542]” was “L”. Turning to “KYYGNGVTCGKHSCSVNWGQAFSCSVSKLAHFGHGKC* [Pep-2_8515]”, the “activity group by size of inhibition zone compared to wild-type Pln-423” value was “L”. As for “KYYGNGVTCGKHSCSVNWGQAFACSVSHLANFGFGKC* [GROUP L-UM-23]”, the “activity group by size of inhibition zone compared to wild-type Pln-423” value is “L”. The value for “KYYGNGVTCGKHSCSVNWGSAFSCSVSHLANFGEGSC* [GROUP L-UM-24]” was “L”; that for “KYYGNGVTCGKHSCSVNWGEAFSCSVHHLANFGHGKC* [Pep-2_5876]” was “E”.

For “KYYGNGVTCGKHSCSVNWGQAFSCSVIALANFGHGKC* [Pep-2_7000]”, the “activity group by size of inhibition zone compared to wild-type Pln-423” value is given as “L”. As to “KYYGNGVTCGKHSCSVNWGQAFSCSTSHLANFGHGKC* [GROUP E-UM-4]”, the “activity group by size of inhibition zone compared to wild-type Pln-423” value was “E”. To “KYYGNGVTCGKHSCSVNWGQAFSCSVSHLANFGSGKC* [Pep-1_99]” belongs “E”; to “KYYGNGVTCGKHSCSVNWGQAFSCSVSVLANFGNGKC* [Pep-2_6927]”, “H”; to “KYYGNGVTCGKHSCSVNWGQAFSCSVSHLANFGHGRC* [GROUP L-UM-25]”, “L”. Regarding “KYYGNGVTCGKHSCSVNWGQSFSCSVSHLANFGHGKC* [GROUP E-UM-5]”, the “activity group by size of inhibition zone compared to wild-type Pln-423” value is “E”. As for “KYYGNGVTCGKHSCSVNWGQAFDCSVSHLANFGHGKC* [GROUP L-UM-4]”, the “activity group by size of inhibition zone compared to wild-type Pln-423” value is listed as “L”. The value for “KYYGNGVTCGKHSCSVNWGQGFSCSVSHLANFGHGKC* [Pep-1_23]” was “L”; that for “KYYGNGVTCGKHSCSVNWGQAFSCSVSHLANFGKGKC* [GROUP L-UM-11]” was “L”; that for “KYYGNGVTCGKHSCSVNWGQAFSCSVHHLANYGHGKC* [Pep-2_5943]” was “L”. The value for “KYYGNGVTCGKHSCSVNWGQAFECSVSHLANFGHNKC* [Pep-2_3477]” was “L”; that for “KYYGNGVTCGKHSCSVNWGQAFSCHVSTLANFGHGKC* [Pep-2_4623]” was “L”.

For the origin of these results see paper PMC3602187, “From Design to Screening: A New Antimicrobial Peptide Discovery Pipeline” (PLoS ONE, 2013).
